One molecule from article doi:10.1101/2024.03.25.586180v1 (biorxiv, 2024) can be followed below.

In this assay the target is T1, BT2 (Bacteroides thetaiotaomicron, UniProt Q8A5T1).
T1 sequence (Q8A5T1 20-290): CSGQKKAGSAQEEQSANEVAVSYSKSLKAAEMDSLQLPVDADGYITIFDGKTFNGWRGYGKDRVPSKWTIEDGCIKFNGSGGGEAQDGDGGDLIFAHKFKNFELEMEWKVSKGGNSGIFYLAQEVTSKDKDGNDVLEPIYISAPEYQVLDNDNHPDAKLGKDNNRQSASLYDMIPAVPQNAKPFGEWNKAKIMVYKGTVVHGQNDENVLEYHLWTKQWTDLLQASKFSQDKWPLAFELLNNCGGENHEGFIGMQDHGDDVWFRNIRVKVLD
In words: 1H-NMR, elimination. It is filed as biochemical. The following applies: elimination to 3-keto-2-hydroxy-glucal.

For `CO[C@H]1O[C@H](CO)[C@@H](O)C(=O)[C@H]1O` [3-keto methyl α-glucoside], the “1H-NMR, elimination” value is given as “while AL/BT2 do so on the α anomer”.
